Reference: patent publication US8252748B2, “Peptide derived from neurotensin receptor 3 and use thereof in the treatment of psychiatric diseases” (Centre National de la Recherche Scientifique—CNRS, priority 2007, dated 2012)
No end group written: not given here.

Experiments:
[1] = system: hippocampus progenitor cells; experiment: Neurogenesis (BrdU-positive cells) after 4 days of treatment; assay type: in vivo, mouse; details: PE 10^−5 M
From the text: In contrast to many antidepressants now commonly used, the efficacy of action of the peptide of the invention is very rapid. […] 93: 3908-3913 (1996) (28) and with a considerable decrease in neurogenesis in the dentate gyrus (Gould, E., Tanapat, P., McEwen, B. S., Flugge, G., Fuchs, E. “Proliferation of granule cell precursors in the dentate gyrus of adult monkeys is diminished by stress” Proc Natl Acad Sci USA, 95: 3168-3171 (1998)) (29).
The experimental protocol is that described in the material and methods (Supplement) of the work of Santarelli et al., “Requirement of hippocampal neurogenesis for the behavioral effects of antidepressants” Science, 301: 805-809 (2003) (24) apart from the duration of treatment, which is four days.
The increase was evaluated using the one-factor ANOVA test followed by the post-hoc test.

TREK-1 channel = biological target: T1, TREK-1 channel (Homo sapiens, UniProt O95069); experiment: Whole-cell patch clamp of TREK-1 channel activity in transfected COS-7 cells; assay type: cell-based
T1 construct: expressed in transfected cells; host or cells: COS-7 cells (ATCC CRL-1651), DEAE-dextran transfection
T1 sequence (O95069 1-426): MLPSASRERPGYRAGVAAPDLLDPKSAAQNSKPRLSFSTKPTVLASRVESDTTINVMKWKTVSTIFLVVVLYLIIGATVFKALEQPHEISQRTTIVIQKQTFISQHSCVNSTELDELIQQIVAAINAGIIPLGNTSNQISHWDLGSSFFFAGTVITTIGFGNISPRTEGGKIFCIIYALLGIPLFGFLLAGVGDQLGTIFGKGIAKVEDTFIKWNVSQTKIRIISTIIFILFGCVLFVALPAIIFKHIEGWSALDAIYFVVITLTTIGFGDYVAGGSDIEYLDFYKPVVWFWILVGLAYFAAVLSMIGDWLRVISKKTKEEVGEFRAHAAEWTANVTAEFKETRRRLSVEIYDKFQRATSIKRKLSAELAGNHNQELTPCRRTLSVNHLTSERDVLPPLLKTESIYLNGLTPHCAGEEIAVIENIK
Description: All the experiments for measuring the effect of the propeptide were conducted on COS-7 cells (cell line derived from kidney fibroblasts of African green monkey Cercopithecus aethiops). These cells are sown at a density of 20 000 cells/dish with diameter of 35 mm, 24 hours before being transfected by the DEAE-dextran method with 1 μg of pIRES-EGFP-TREK-1 plasmid. Measurements of current were taken 48 to 72 hours after transfection.
Culture of the COS-7 cells. The COS-7 cells (ATCC reference: CRL-1651) are cultivated in DMEM medium (Gibco)/10% fetal calf serum (FCS, ICN), at 37° C. in the presence of 5% CO2.
Transfection using DEAE dextran. On day 1, the COS-7 cells are sown at 20 000 cells per 35-mm diameter dish containing 2 ml of culture medium. On day 2, the medium is removed and the cells are covered with 200 μl of PBS (Gibco) containing 1 μg of pIRES-EGFP-TREK-1 plasmid and 100 μg of DEAE-dextran (Sigma) then placed at 37° C./5% CO2. After incubation for 30 minutes, 2 ml of medium DMEM/10% NuSerum/80 μM chloroquin is added. After 3 hours, the medium is replaced with 2 ml of DMEM/10% FCS and the cells are incubated for 48 to 72 hours before being measured by electrophysiological methods.
Electrophysiological measurements: all the measurements are taken at room temperature, i.e. at 21-22° C. The cells that were transfected by the plasmid are detected from the fluorescence emitted by the EGFP after excitation at 480 nm.
The whole-cell patch clamp technique was used for measuring the activity of the TREK-1 channels. The equipment used is the RK 400 patch-clamp amplifier (Axon Instruments, U.S.A.). The patch pipettes with resistance of 1.3 to 8 MΩ are prepared from capillaries of borosilicate glass and are filled with a solution of 155 mM KCl, 3 mM MgCl2, 5 mM EGTA, 10 mM HEPES/KOH pH 7.2.
The cell culture medium is replaced with a solution of 150 mM NaCl, 5 mM KCl, 3 mM MgCl2, 1 mM CaCl2, 10 HEPES/NaOH pH 7.4 containing 10 mM tetraethyl ammonium chloride, 3 mM of 4-aminopyridin. The cells are perfused continuously with this solution. The rest potential of the membrane of the measured cell is fixed at −80 mV.
The variations in voltage are obtained either with a continuous ramp (from −100 to +50 mV) or by potential jumps of 10 mV (from −100 to +40 mV, 1.5 second per jump).
The data obtained were analyzed with the Pclamp software. The currents described in the appended FIG. 2B were obtained at 0 mV, the results expressed are the mean values±standard deviation. The IC50 value was obtained by plotting the experimental data with a sigmoidal function.
The activity of the channel is then measured by the patch-clamp technique in whole-cell configuration as described above.

## APLPRWSGPIGVSWGLR [propeptide, APLPRWSGPIGVSWGLR]
[1]
  neurogenesis relative to physiological saline: significant increase in neurogenesis
TREK-1 channel; 10 μM arachidonic acid plus 100 μM of propeptide (130 pA/pF without propeptide)
  current density at 0 mV: 56 pA/pF
TREK-1 channel; COS-7, read-out: inhibition of channel activity measured at 0 mV
  inhibition at 100 µM: 25%
TREK-1 channel; activated by 10 μM arachidonic acid, measured at 0 mV, read-out: half-effect concentration (IC50) of inhibition of TREK-1 channel activity
  IC50: 70.7 nM
TREK-1 channel; baseline conditions, 100 μM of propeptide (control 31 pA/pF)
  current density at 0 mV: 23 pA/pF
TREK-1 channel; electrophysiology, FIG. 2
  activation of TREK-1 by arachidonic acid: blocked
